Assays:
Type in all cases: in vivo
Rhizoctonia solani = assay: Control of Rhizoctonia solani on Colonial Bentgrass (Example B-4); conditions: 302 g ai/ha, application interval 14 days, three sprays, assessed 21 days after final application, natural infection, vs untreated (80% diseased)
Procedure: Plots of Colonial Bentgrass (Agrostis tenius Sibth.) naturally infected with brown patch (Rhizoctonia solani) were treated with quantities of formulation C which correspond to a dose shown in the table below and expressed in g ai/ha. The dose corresponding to 302 g ai/ha was sprayed three times with an interval of 14 days. The dose corresponding to 604 g ai/ha was sprayed two times with an interval of 28 days. At 21 days after the final application of both dose rates, disease severity was assessed visually. […] Disease control is shown as % disease control compared to untreated plots.

[1] = test system: Colletotrichum graminicola; assay: Control of Colletotrichum graminicola on Annual Bluegrass/Creeping Bentgrass (Example B-3); conditions: 500 g ai/ha; application interval 21 days, three sprays; assessed 10 days after final application; Poa/Bentgrass, natural infection; vs untreated (44% diseased)
Procedure: The following EC formulation was prepared: […]
Plots of a mixture of Annual Bluegrass (Poa annua) and Creeping Bentgrass (Agrostis stolifera) naturally infected with anthracnose (Colletotrichum graminicola) were treated with quantities of formulation C which correspond to a dose shown in the table below and expressed in g ai/ha. The dose corresponding to 250 g ai/ha was sprayed four times with an interval of 14 days. The dose corresponding to 500 g ai/ha was sprayed three times with an interval of 21 days. At 23 days after the final application with the 250 g ai/ha dose, and 10 days after the final application with the 500 g ai/ha dose, disease severity was assessed visually. […] Disease control is shown as % disease control compared to untreated plots.

Sclerotinia homoeocarpa [2] = assay: Control of Sclerotinia homoeocarpa on Kentucky Bluegrass (Example B-2, plot spray treatment); conditions: 500 g ai/ha, sprayed three times every 14 days, assessed 19 days after last treatment, vs untreated (58% diseased)
Procedure: (§1) Plots were inoculated with Kentucky Bluegrass (Poa pratensis L.) seeds infested with Sclerotinia homoeocarpa, and a quantity of formulations A and B which corresponds to a dose shown in the table below and expressed in g/ha was sprayed on the plots. This treatment was repeated three times at an interval of 1 treatment every 14 days. 19 days after the last treatment, the disease incidence and severity was assessed visually. […] Disease control is shown as % disease control compared to untreated Kentucky Bluegrass.

Sclerotinia homoeocarpa [3] = assay: Control of Sclerotinia homoeocarpa on Creeping Bentgrass (Example B-1, plot spray treatment); conditions: 500 g ai/ha, sprayed three times every 14 days, assessed 19 days after last treatment, vs untreated (60% diseased)
Procedure: The following EC formulations were prepared: […]
as §1, with “Creeping Bentgrass (Agrostis palustris Huds.)” for “Kentucky Bluegrass (Poa pratensis L.)”, “Creeping Bentgrass.” for “Kentucky Bluegrass.”

Row | Structure (SMILES) | % Disease Control (Rhizoctonia solani) | % Disease Control [1] | % Disease Control (Sclerotinia homoeocarpa [2]) | % Disease Control (Sclerotinia homoeocarpa [3])
1 | CC(C)C1C2CCC1c1c(NC(=O)c3cn(C)nc3C(F)F)cccc12 (racemic) [Compound IAc] | 97% | 92% | 88% | 93%
2 | CC(C)CC(C)c1sccc1NC(=O)c1cn(C)nc1C(F)(F)F (stereo not drawn) [Penthiopyrad, N-[2-(1,3-dimethylbutyl)-3-thienyl]-1-methyl-3-(trifluoromethyl)-1H-pyrazole-4-carboxamide, reference compound] |  |  | 21% | 57%
